SMILES strings stand for the structures. Where only a bound is given, the exact number is not on record here.

Assay type in all cases: cell-based
Assay [1] deals with T1, mouse ATB^0,+ (Mus musculus, UniProt Q9JMA9).
T1 sequence (Q9JMA9 1-638): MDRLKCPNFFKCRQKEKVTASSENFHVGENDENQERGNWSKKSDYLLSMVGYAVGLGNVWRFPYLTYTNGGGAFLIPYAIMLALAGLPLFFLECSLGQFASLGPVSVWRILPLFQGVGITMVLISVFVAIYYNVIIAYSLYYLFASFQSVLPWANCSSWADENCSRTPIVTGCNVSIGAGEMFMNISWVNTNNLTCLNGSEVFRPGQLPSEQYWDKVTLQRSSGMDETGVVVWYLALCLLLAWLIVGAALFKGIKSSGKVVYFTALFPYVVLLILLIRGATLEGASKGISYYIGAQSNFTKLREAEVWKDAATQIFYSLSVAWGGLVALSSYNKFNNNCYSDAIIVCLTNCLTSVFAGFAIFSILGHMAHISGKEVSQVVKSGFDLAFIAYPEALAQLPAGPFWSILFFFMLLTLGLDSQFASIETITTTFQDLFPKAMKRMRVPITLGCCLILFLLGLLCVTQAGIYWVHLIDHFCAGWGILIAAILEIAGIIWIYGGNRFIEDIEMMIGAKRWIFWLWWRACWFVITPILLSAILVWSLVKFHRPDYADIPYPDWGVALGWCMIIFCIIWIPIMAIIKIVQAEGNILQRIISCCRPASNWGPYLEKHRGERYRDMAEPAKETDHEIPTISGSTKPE
In words: Substrate-induced inward currents in X. laevis oocytes expressing mouse ATB^0,+ (two-microelectrode voltage clamp). To be noted: voltage clamp, NaCl; for inward currents induced in ATB^0,+-expressing oocytes: 2.5 mM. The procedure:
(§1) Capped cRNA from the cloned mouse or human ATB^0,+ cDNA was synthesized using the mMESSAGE mMACHTNE kit (Ambion, Austin, Tex., U.S.A.). Mature oocytes (stage IV or V) from X. laevis were injected with 50 ng of cRNA. Uninjected oocytes served as controls. The oocytes were used for electrophysiological studies 3-6 days after cRNA injection. Electrophysiological studies were performed by the two-microelectrode voltage-clamp method (Nakanishi et al., 2001, J. Physiol. 532, 297-304). Oocytes were superfused with an NaCl-containing buffer (100 mM NaCl, 2 mM KCl, 1 mM MgCl2, 1 mM CaCl2, 3 mM Hepes, 3 mM Mes and 3 mM Tris, pH 7.5), followed by the same buffer containing tryptophan derivatives. The membrane potential was clamped at −50 mV. The differences between the steady-state currents measured in the presence and absence of substrates were considered as the substrate-induced currents. In the analysis of the saturation kinetics of substrate-induced currents, the kinetic parameter K0.5 (i.e. substrate concentration necessary for induction of half-maximal current) was calculated by fitting the values of the substrate-induced currents to the Michaelis-Menten equation. The Na^+ and Cl^− activation kinetics of substrate-induced currents were analysed by measuring the substrate-specific currents in the presence of increasing concentrations of Na^+ (concentration of Cl^− kept constant at 100 mM) or in the presence of increasing concentrations of Cl^− (concentration of Na^+ kept constant at 100 mM). In these experiments, the composition of the superfusion buffer was modified to contain 2 mM potassium gluconate, 1 mM MgSO4 and 1 mM calcium gluconate in place of KCl, MgCl2 and CaCl2 respectively. The data from these experiments were analysed by the Hill equation to determine the Hill coefficient (h; number of Na^+ and Cl^− ions involved in the activation process). The kinetic parameters were determined by using the commercially available computer program Sigma Plot, version 6.0 (SPSS, Chicago, Ill., U.S.A.). Uninjected oocytes were used to determine the currents induced by tryptophan derivatives due to entry via transporters that may be constitutively expressed in the oocytes. At a concentration of 2.5 mM, the currents induced by these compounds were in the range of 0-3 nA in uninjected oocytes. These currents were less than 2% of the corresponding currents induced in ATB^0,+ cRNA-injected oocytes. Therefore the endogenous currents associated with the constitutively expressed transporters were not considered in the analysis of kinetic parameters of ATB^0,+ transport activity.
The above studies with the mammalian cell expression system have focused on the interaction of 1-methyltryptophan and other tryptophan derivatives with ATB^0,+ by examining the effects of these compounds on the transporter-mediated glycine uptake. These studies have shown convincingly that 1-methyltryptophan interacts with ATB^0,+, with the L-isomer having much higher affinity for the transporter than the D-isomer. However, these studies have not shown whether or not 1-methyltryptophan is actually a transportable substrate for ATB^0,+. It is possible that 1-methyltryptophan inhibits ATB^0,+-mediated glycine uptake simply by blocking the interaction of glycine with the substrate-binding site of the transporter, rather than by actually competing with glycine for the transport process. […] We wanted to know whether 1-methyltryptophan can actually be transported by ATB^0,+. For this, we used the X. laevis oocyte expression system. Since the transport process mediated by ATB^0,+ is electrogenic, exposure of ATB^0,+-expressing oocytes to transportable substrates will induce an inward current in an Na^+- and Cl^−-dependent manner. Exposure of the same oocytes to blockers will interfere with currents induced by transportable substrates, but will not induce currents by themselves. […]

Assay [2] concerns the target T1, mouse ATB^0,+. In words: Inhibition of ATB^0,+-mediated glycine uptake in HRPE cells expressing cloned mouse ATB^0,+. The conditions noted are these: glycine 10 μM; inhibitor 1 mM; 30 min; NaCl; HRPE cells.
A further assay addresses T2, human ATB^0,+ (Homo sapiens, UniProt Q9UN76).
T2 construct: The human ATB^0,+ cDNA was cloned from an MCF7 cell (a human mammary epithelial cancer cell line) cDNA library; expressed in transfected cells; host or cells: Xenopus laevis oocytes injected with 50 ng capped cRNA
T2 sequence (Q9UN76 1-642): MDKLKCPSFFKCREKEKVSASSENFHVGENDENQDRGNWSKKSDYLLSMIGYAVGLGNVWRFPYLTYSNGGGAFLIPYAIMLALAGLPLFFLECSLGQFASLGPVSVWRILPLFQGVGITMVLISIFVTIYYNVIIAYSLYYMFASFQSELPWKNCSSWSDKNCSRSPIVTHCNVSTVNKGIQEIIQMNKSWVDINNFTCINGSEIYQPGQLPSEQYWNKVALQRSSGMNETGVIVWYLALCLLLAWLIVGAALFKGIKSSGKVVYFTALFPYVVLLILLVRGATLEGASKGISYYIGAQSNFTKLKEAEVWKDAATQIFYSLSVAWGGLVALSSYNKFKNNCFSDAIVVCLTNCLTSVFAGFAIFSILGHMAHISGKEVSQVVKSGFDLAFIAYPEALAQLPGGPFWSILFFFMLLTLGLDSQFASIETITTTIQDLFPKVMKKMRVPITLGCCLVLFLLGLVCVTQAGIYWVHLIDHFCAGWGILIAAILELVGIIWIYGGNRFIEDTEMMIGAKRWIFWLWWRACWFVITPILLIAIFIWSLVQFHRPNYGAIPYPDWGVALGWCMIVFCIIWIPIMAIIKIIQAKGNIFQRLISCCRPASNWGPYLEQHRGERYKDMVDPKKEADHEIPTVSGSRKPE
In words: Block of inward currents induced by amino acid mixture simulating plasma in X. laevis oocytes expressing human ATB^0,+. To be noted: even at 1 mM; amino acid mixture simulating plasma. As for the experimental part: as §1
These studies with α-methyl-DL-tryptophan as a blocker of ATB^0,+ were carried out with L-tryptophan at sub-saturating concentrations. […] Therefore, using the Xenopus oocyte heterologous expression system, we monitored the transport activity of human ATB^0,+ in the presence of an amino acid mixture consisting of 18 different amino acids, each at its respective physiological concentration found in plasma (Glew et al., 2004, Clin. Chim. Acta 342, 179-185) (Table 1). Inward currents were detected under these conditions in oocytes expressing human ATB^0,+. […] We then monitored the ability of α-methyl-DL-tryptophan to block the inward currents induced by the same mixture of amino acids in oocytes expressing human ATB^0,+ (FIG. 4B). […]

The target of the next assay is human LAT1/4F2hc (Homo sapiens, UniProt Q01650). In words: Inhibition of LAT1 transport function: L-valine uptake in HRPE cells co-expressing human LAT1 and human 4F2hc. The conditions noted are these: 1 mM; L-[14C]valine 0.75 μM; 5 min.
The target in a further assay is T3, ATB^0,+ in MCF7 cells (Homo sapiens, UniProt Q9UN76).
T3 construct: host or cells: MCF7
T3 sequence (Q9UN76 1-642): T2 sequence (Q9UN76 1-642)
In words: D-serine uptake in MCF7 cells (constitutively expressed ATB^0,+). To be noted: MCF7 cells; for IC50: D-serine 5 μM, NaCl, read-out: IC50 for inhibition of D-serine uptake. The procedure:
Cells were seeded and grown in 24-well culture plates to confluency and used for uptake measurements. Radiolabelled glycine or D-serine was used as the substrate to determine the transport function of ATB^0,+. Uptake measurements were routinely made in an NaCl-containing buffer (25 mM Hepes/Tris buffer, pH 7.4, 140 mM NaCl, 5.4 mM KCl, 1.8 mM CaCl2, 0.8 mM MgSO4 and 5 mM glucose). Ion dependence of the transport process was evaluated by studying the uptake activity in buffers of varying compositions. NaCl in the uptake buffer was replaced iso-osmotically with NMDG (N-methyl-D-glucamine) chloride to prepare an Na^+-free buffer, and with sodium gluconate to prepare a Cl^−-free buffer. Linear uptake rates were determined by employing a 10 min incubation period, based on time course experiments. Na^+-activation kinetics was analysed by studying the uptake rates in the presence of varying concentrations of Na^+ (2.5-140 mM) in the uptake buffer with Cl^− concentration kept constant at 140 mM. This was done by replacing NaCl with appropriate concentrations of NMDG. Cl^−-activation kinetics was analysed by studying the uptake rates in the presence of varying concentrations of Cl^− (2.5-100 mM) in the uptake buffer with Na^+ concentration kept constant at 140 mM. This was done by replacing NaCl with appropriate concentrations of sodium gluconate. Uptake data for Na^+- and Cl^−-activation kinetics were analysed using the Hill equation, and values for K0.5 for Na^+ and Cl^− and for the Hill coefficient (h) were determined by linear and non-linear regression methods. A commercially available software program (Sigma Plot, version 6.0; SPSS) was used for this purpose. Substrate specificity of the uptake process was evaluated by monitoring the effects of unlabelled amino acids (5 mM) on the uptake of radiolabelled glycine or D-serine (5 μM: radiolabelled substrate, 0.05 μM; unlabelled substrate, 4.95 μM).
The kinetic nature of inhibition of D-serine uptake by α-methyl-DL-tryptophan was investigated in MCF7 cells by monitoring the uptake at increasing concentrations of D-serine (range, 50-2000 μM) in the absence and presence of 100 μM α-methyl-DL-tryptophan. The kinetic parameters were calculated by linear regression (Eadie-Hofstee plots) and the values were confirmed by non-linear regression.
We employed a similar experimental strategy to detect specifically the transport function of ATB^0,+ in the remaining seven cell lines. […] We also investigated the effect of α-methyl-DL-tryptophan on D-serine uptake in MCF7 cells.

Sequence of human LAT1/4F2hc (Q01650 whole entry): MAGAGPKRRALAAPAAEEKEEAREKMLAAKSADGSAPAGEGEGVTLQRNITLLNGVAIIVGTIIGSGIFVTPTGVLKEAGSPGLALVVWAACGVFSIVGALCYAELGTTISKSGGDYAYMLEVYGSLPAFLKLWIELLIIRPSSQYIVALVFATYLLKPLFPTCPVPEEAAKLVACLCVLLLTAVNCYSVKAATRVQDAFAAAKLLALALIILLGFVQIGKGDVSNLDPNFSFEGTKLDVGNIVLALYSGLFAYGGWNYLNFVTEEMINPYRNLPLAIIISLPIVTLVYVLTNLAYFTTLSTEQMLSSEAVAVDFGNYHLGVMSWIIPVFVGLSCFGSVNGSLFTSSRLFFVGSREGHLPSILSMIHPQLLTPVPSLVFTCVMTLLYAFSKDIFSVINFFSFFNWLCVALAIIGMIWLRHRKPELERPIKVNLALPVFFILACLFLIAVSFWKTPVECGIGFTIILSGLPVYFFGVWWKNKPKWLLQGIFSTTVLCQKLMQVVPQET
Sequence of human LAT1/4F2hc (P08195 102-630 partner): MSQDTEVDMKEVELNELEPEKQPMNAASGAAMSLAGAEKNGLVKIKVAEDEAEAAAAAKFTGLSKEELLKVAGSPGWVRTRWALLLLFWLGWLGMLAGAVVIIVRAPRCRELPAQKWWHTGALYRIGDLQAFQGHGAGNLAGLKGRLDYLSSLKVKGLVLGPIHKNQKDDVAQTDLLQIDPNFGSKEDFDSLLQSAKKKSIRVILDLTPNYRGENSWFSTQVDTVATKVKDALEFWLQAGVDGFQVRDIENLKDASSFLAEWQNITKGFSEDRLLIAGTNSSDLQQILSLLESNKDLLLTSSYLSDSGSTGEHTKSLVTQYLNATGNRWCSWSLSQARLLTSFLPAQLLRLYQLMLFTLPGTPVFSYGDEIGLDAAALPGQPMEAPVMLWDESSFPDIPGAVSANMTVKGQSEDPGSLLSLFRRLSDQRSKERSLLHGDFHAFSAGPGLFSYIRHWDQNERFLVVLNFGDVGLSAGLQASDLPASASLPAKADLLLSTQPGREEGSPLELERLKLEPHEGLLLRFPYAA

As to `CC(=O)N[C@@H](Cc1c[nH]c2ccccc12)C(=O)O` [N-acetyl-L-tryptophan], the “inward currents induced in ATB^0,+-expressing oocytes” value at mouse ATB^0,+ [1] is reported as “did not induce currents”. Also, the “inhibition of ATB^0,+-specific glycine uptake” value on mouse ATB^0,+ [2] is on record as “not able to inhibit”. In the case of `C[C@@](N)(Cc1c[nH]c2ccccc12)C(=O)O` [α-methyl-D-tryptophan, α-Methyl-D-Tryptophan], the inhibition at 1000 µM at human ATB^0,+ is at most 40%. `N[C@@H](Cc1c[nH]c2ccccc12)C(=O)O` [tryptophan]: the “effect on cDNA-induced valine uptake” value at human LAT1/4F2hc is recorded as “abolished completely”. For `N[C@@H](Cc1c[nH]c2ccc(O)cc12)C(=O)O` [5-hydroxy-L-tryptophan], on mouse ATB^0,+ [2], the “inhibition of ATB^0,+-specific glycine uptake” value is “inhibited”. For `Cc1cccc2[nH]cc(CC(N)C(=O)O)c12` (racemic) [4-methyl-DL-tryptophan], the “inhibition of ATB^0,+-specific glycine uptake” value against mouse ATB^0,+ [2] was “inhibited”. Take `N[C@H](Cc1c[nH]c2ccccc12)C(=O)O` [D-tryptophan]: the “Michaelis constant (K0.5) of substrate-induced currents” value on mouse ATB^0,+ [1] (saturation kinetics) is 288 ± 48 µM. Moreover, the “inhibition of ATB^0,+-specific glycine uptake” value on mouse ATB^0,+ [2] was “inhibited”.

For the compound `N=C(N)NCCC[C@H](N)C(=O)O` [Arginine], the half-maximal inhibitory concentration (IC50) on ATB^0,+ in MCF7 cells was 250 to 500 µM. With `Cc1ccc2c(CC(N)C(=O)O)c[nH]c2c1` (racemic) [6-methyl-DL-tryptophan], the “inhibition of ATB^0,+-specific glycine uptake” value on mouse ATB^0,+ [2] was “inhibited”. On the same count and under the same terms, with `COC(=O)[C@@H](N)Cc1c[nH]c2ccccc12` [L-tryptophan methyl ester] the entry was “inhibited”. For the compound `NCCCC[C@H](N)C(=O)O` [lysine], on ATB^0,+ in MCF7 cells, the IC50 was in the range of 250 to 500 µM. With `N[C@H](CO)C(=O)O` [D-serine], at ATB^0,+ in MCF7 cells (absence of the blocker), the “Kt for D-serine uptake” value amounted to 517 ± 38 µM and the “Vmax for D-serine uptake” value is 32.4±1.5 nmol/mg of protein per 15 min. `Cc1ccc2[nH]cc(CC(N)C(=O)O)c2c1` (racemic) [5-methyl-DL-tryptophan]: the “inhibition of ATB^0,+-specific glycine uptake” value at mouse ATB^0,+ [2] is given as “inhibited”. On to `NCCc1c[nH]c2ccc(O)cc12` [5-hydroxytryptamine], for which, on mouse ATB^0,+ [1], the “inward currents induced in ATB^0,+-expressing oocytes” value is on record as “did not induce currents”. Besides, the “inhibition of ATB^0,+-specific glycine uptake” value on mouse ATB^0,+ [2] is reported as “not able to inhibit”.
